# How the values were obtained:
# E. coli MG1655 = assay: Microscopic observation of cell shape; assay type: cell-based; conditions: for Effect on E. coli cell morphology (in words): 3×MIC or 300 μg/ml, 16 hrs
# Method in brief: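 E. coli K-12 MG1655 grown in Lennox broth with 0.1% glucose (pH 7.2), exposed to compound, methanol-fixed 5 min and examined by differential interference contrast microscopy. Anucleate cells scored after DAPI staining (5 μg/ml) using combined fluorescence phase-contrast.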
# Caulobacter = assay: Colony formation assay; assay type: cell-based, Caulobacter crescentus
# Source text: To assess the impact of A22 on cell division and survival, we examined the effect of A22 on colony formation.
# MreB = molecular target: T1, MreB (Caulobacter vibrioides, UniProt A0A0H3C7V4); assay: Chromatin immunoprecipitation with anti-MreB; assay type: cell-based, Caulobacter crescentus; conditions: in the presence of A22
# T1 construct: endogenous in cells; host or cells: Caulobacter crescentus cells (formaldehyde-crosslinked extracts)
# T1 sequence (A0A0H3C7V4 whole entry): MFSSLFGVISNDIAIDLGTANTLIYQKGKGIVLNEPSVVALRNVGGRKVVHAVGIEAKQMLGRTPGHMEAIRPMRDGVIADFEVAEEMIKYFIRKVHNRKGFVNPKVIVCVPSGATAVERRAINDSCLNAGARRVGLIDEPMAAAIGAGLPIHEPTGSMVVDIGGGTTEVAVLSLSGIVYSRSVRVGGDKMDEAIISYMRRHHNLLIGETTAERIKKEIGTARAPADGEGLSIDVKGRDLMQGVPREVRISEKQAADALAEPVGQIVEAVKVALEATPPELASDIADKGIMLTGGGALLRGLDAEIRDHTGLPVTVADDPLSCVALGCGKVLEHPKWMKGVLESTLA
# Source text: MreB Associates with Origin-Proximal Loci. The specific inhibition of origin movement by A22 raises the possibility that the duplicated origin moves to the opposite pole through a specific physical association with MreB, much as eukaryotic centromeres are segregated by association with microtubules. We sought to detect such an association in vivo by chromatin immunoprecipitation (ChIP). Following previously established protocols, Caulobacter extracts were ChIP'ed with polyclonal antisera raised against purified Caulobacter MreB. PCR was then used to amplify specific segments of the Caulobacter chromosome. […] We detected a faint signal with primers to the dnaA promoter located 6 kb to the right of the origin (FIG. 8), possibly reflecting the fact that dnaA is at the edge of the MreB binding region.
# Chromatin Immunoprecipitations. Formaldehyde-crosslinked chromatin immunoprecipitation was performed as described previously. The anti-MreB antibody was raised by cloning the mreB coding sequence into the pET28a vector (Novagen). The resulting His6-tagged MreB was overexpressed in BL21(DE3)/pLysS E. coli and purified using Qiagen Ni2+-NTA agarose as described previously. Two milligrams of purified His6-MreB was used to immunize two rabbits (Josman Laboratories, Napa, Calif.). Oligonucleotide primer sequences for the regions PCR amplified are available upon request.
# E. coli JA221, JST975 = assay: Cell shapes of A22-resistant mutant JA221 and parent JST975; assay type: cell-based; conditions: 10 μg/ml A22
# Procedure: FIG. 9. Effects of A22 and mecillinam on cell shapes of the A22-resistant mutant JA221. Exponentially growing cells of the A22-resistant mutant strain JA221 and the parent strain JST975 were treated with 1 μg/ml mecillinam or 10 μg/ml A22 for 2 h at 37° C. Differential interference contrast microphotographs are shown.
# After prolonged (9 days) incubation of the JST975 assay plates, several isolated colonies that grew up within the clear growth inhibitory zones were purified on L plates and their A22-sensitivity was examined.
# MreB-GFP fusion protein = molecular target: T2, MreB-GFP fusion protein (Escherichia coli, UniProt P0A9X4); assay: MreB helical structures in vivo (MreB-GFP); assay type: cell-based, E. coli; conditions: 10 μg/ml
# T2 construct: expressed in transfected cells; host or cells: E. coli JM109 carrying pMreB1-GFP (native mreB promoter)
# T2 sequence (P0A9X4 whole entry, the tested form may be a part): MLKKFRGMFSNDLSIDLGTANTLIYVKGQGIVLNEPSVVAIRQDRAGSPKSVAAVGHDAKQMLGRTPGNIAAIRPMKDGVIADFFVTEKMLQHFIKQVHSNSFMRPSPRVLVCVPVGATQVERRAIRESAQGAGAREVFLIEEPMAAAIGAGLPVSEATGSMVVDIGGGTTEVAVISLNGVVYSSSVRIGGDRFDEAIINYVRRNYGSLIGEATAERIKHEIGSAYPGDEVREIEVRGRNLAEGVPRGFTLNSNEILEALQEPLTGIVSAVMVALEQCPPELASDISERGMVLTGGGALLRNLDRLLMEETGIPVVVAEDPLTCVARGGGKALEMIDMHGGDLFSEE
# Procedure: FIG. 11. In vivo effects of A22. Exponentially growing JM109/pMreB1-GFP cells were treated with 10 μg/ml of A22, and changes in cell shape and GFP fluorescence were observed. (a, b) no treatment; (c, d) 30 min after A22 treatment; (e, f) 60 min after A22 treatment; (g, h) 120 min after A22 treatment.
# It was recently shown that the MreB forms helical structures in E. coli as well as B. subtilis. […] In rounded cells, MreB-GFP appeared as discrete dots located close to the cell surface (FIGS. 11e-11h), which may be the result of aggregation of MreB-GFP protein de-polymerized by A22.
# Construction of a mreB-gfp fusion plasmid A DNA fragment encoding the wild-type mreB gene was PCR-amplified from pMreB1 with primers (SEQ ID NO:5) 5′-[…]-3′ and (SEQ ID NO:6) 5′-[…]-3′. After cutting with Xba I and Nhe I, the PCR-generated DNA fragments were ligated to an XbaI-NheI-cut gfp vector pQIB-T7-GFP (Qbiogene Inc., Irvine, Calif., USA), resulting in an mreB-gfp translational fusion. From the resulting plasmid, an Aor51HI-HindIII fragment encoding the C-terminal portion of MreB fused with GFP was isolated and used to replace the Aor51HI-HindIII fragment of pMreB1, resulting in a plasmid pMreB1-GFP that expresses the MreB-GFP fusion protein from the native mreB promoter. […]
# E. coli cells = assay: Cell lysis; assay type: cell-based
# Source text: To facilitate the isolation of A22-resistant mutants a PBP 1B-defective (ponB^−) mutant strain, JST975, which forms a clear growth inhibitory zone upon A22 treatment, was selected as the parent strain in our screen. […] This correlates well with the increased sensitivity of mreB mutant strains to β-lactam antibiotics. In future screens for antibacterial agents derived from A22, it will be important to consider that the antibacterial effect of A22 on wild-type E. coli cells may be enhanced by simultaneous treatment with sub-lethal concentrations of β-lactam antibiotics.
structure (smiles),measurement,setting,value
"N=C(N)SCc1ccc(Cl)c(Cl)c1 [Compound 1, S-(3,4-dichlorobenzyl)isothiourea]",Effect on E. coli cell morphology (in words),E. coli MG1655; 30° C.,induced a spherical cell shape
same,Effect on E. coli cell morphology (in words),"E. coli MG1655; 30° C., listed as A22",induced spherical cells
same,Shape,"E. coli MG1655; E. coli MG1655 treated at 3×MIC (*), 30° C., 16 h",Sphere*
same,Shape,"E. coli MG1655; Example 2, methods as in Example 1",Sphere
same,Colony formation (CFU),Caulobacter; 0.1 μg/ml,un-perturbed
same,Colony formation (CFU),Caulobacter; 1 μg/ml,partially slowed colony formation
same,Colony formation (CFU),Caulobacter; 10 μg/ml and higher,completely halted the increase in CFU
same,Origin coimmunoprecipitation with MreB,MreB,"significantly reduced, though not abolished"
same,Cell shape of parent strain JST975,"E. coli JA221, JST975",formed spherical cells
same,Cell shape of resistant mutant JA221,"E. coli JA221, JST975",grew as rods
same,MreB-GFP dots and bands (helical structures),"MreB-GFP fusion protein; 30-minute treatment, JM109 cells",fluorescent dots and bands disappeared
same,Cell shape of MreB-GFP expressing JM109 cells,MreB-GFP fusion protein; after 120 minutes,almost spherical
same,Lysis of E. coli cells in the absence of PBP 1B,E. coli cells; JST975 liquid culture,induces cell lysis
same,Lysis of wild-type E. coli cells,E. coli cells; wild-type,does not lyse
